In publication PMC5926202, “Creation of a nanoformulated cabotegravir prodrug with improved antiretroviral profiles” (Biomaterials, 2017):
Converted amounts (≈) assume the structure as drawn.

Experiments:
[1] = test system: HIV-1ADA in human monocyte derived macrophages (MDM); test: Antiretroviral activity of CAB and MCAB in HIV-1ADA infected MDM (HIV RT activity); assay type: cell-based; conditions: Human immunodeficiency virus 1, 168 h, HIV-1ADA MOI 0.1, MDM, 7 days after challenge
Description: (E) Antiretroviral activities of CAB and MCAB were evaluated in HIV-1ADA infected human monocyte derived macrophages (MDM). Inhibition rate was presented as percentage of reduced HIV reverse transcriptase (RT) activity as compared to positive control RT activity. Nonlinear regression was performed using log (drug concentration) vs. Inhibition rate with variable slope, and drug concentration for 50% inhibition (IC50) was calculated. […] Data are expressed as mean ± SD for n= 6 samples per group.
Monocyte-derived macrophages (MDM) were utilized. […] Briefly, monocytes were obtained by leukapheresis of HIV-1/2 and hepatitis B seronegative donor blood cells, followed by purification via countercurrent centrifugal elutriation. Elutriated monocytes were cultured as adherent cells in DMEM supplemented with 10% heat-inactivated pooled human serum, 10 µg/mL ciprofloxacin, 50 µg/mL gentamicin, and 1000 U/mL recombinant macrophage colony stimulating factor. Cells were maintained at 37 °C in a 5% CO2 incubator. Seven days later, differentiated macrophages were treated with various concentrations (0.06–1000 nM) of native CAB or MCAB for 30 min, followed by HIV-1ADA challenge at a multiplicity of infection (MOI) of 0.1 infectious viral particles/cell. […]

[2] = long-acting parenteral; cited from earlier work
HIV = conditions: cited from earlier work
[3] = Solubility test in water and 1-octanol; assay type: physicochemical; conditions: room temperature; for solubility at 24 h: water, thermodynamic from solid, 24 h mixing
Description: The solubilities of CAB and MCAB in water and 1-octanol were determined by adding excess drug to each solution at room temperature then mixing for 24 h. Samples were centrifuged at 20,000 × g for 10 min to pellet insoluble drug. The supernatants containing solubilized drug were vacuum-dried then re-dispersed in methanol for drug concentration measurement using a Waters ACQUITY ultra performance liquid chromatography (UPLC) H-Class System with TUV detector and Empower 3 software (Milford, MA, USA). […] Drug content was quantitated by comparison of peak area to those of known standards (0.05–50 µg/mL in methanol).

Compound | IC50 [1] | half-life [2] | 4 × PA-IC90 (HIV; 4 times protein-binding-adjusted 90% inhibitory concentration ref 19-22) | PA-IC90 (HIV; protein-binding-adjusted ref 24) | solubility at 24 h [3] | increase in 1-octanol solubility compared to CAB [3]
C[C@H]1CO[C@@H]2Cn3cc(C(=O)NCc4ccc(F)cc4F)c(=O)c(O)c3C(=O)N12 [CAB, cabotegravir] | 2.5 nM | up to 54 days | 0.66 µg/mL | 0.166 µg/mL | 31.9 ± 14.4 µg/mL (≈ 78.7 µM) | –
CCCCCCCCCCCCCC(=O)Oc1c2n(cc(C(=O)NCc3ccc(F)cc3F)c1=O)CC1OCC(C)N1C2=O (centres unmarked) [MCAB] | 3.4 nM | – | – | – | 5.6 ± 1.8 µg/mL (≈ 9.1 µM) | 30 fold
